In ChEMBL document CHEMBL4831520, “Discovery of First-in-Class Dual PARP and EZH2 Inhibitors for Triple-Negative Breast Cancer with Wild-Type BRCA” (J Med Chem, 2021):

Key:
MDA-MB-231 = test: cells; type: functional, cell-based; conditions: Homo sapiens, MDA-MB-231, 72 h
Description: Antiproliferative activity against human MDA-MB-231 cells assessed as cell viability after 72 hrs by MTT assay

MDA-MB-468 = test: cells; type: functional, cell-based; conditions: Homo sapiens, MDA-MB-468, 72 h
Description: Antiproliferative activity against human MDA-MB-468 cells assessed as cell viability after 72 hrs by MTT assay

MCF7 = test: cells; type: functional, cell-based; conditions: Homo sapiens, MCF7, 72 h
Description: Antiproliferative activity against human MCF7 cells assessed as cell viability after 72 hrs by MTT assay

MCF-10A = test: cells; type: ADME, cell-based; conditions: Homo sapiens, 72 h
Description: Antiproliferative activity against human MCF-10A cells assessed as cell viability after 72 hrs by MTT assay

[1] = target: T1, Histone-lysine N-methyltransferase EZH2 (Homo sapiens, UniProt Q15910)
Target sequence in this assay (Q15910 whole entry): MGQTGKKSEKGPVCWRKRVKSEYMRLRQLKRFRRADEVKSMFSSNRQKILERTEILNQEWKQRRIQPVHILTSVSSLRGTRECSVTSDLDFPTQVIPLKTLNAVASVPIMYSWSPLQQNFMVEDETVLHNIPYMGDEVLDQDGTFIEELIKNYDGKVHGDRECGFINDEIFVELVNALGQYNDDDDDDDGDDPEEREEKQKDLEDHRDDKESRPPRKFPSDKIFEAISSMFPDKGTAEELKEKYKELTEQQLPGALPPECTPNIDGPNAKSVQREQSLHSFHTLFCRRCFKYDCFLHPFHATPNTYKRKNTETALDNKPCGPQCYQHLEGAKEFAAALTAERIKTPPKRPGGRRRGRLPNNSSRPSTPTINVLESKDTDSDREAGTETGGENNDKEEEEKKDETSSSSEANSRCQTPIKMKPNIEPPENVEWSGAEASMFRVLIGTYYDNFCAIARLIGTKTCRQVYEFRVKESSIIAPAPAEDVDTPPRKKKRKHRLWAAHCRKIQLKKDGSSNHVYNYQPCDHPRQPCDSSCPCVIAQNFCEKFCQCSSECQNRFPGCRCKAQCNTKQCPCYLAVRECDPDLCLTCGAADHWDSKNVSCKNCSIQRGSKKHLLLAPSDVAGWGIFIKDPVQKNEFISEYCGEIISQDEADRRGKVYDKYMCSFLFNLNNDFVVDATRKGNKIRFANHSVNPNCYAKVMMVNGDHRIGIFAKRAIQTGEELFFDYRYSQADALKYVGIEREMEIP
Description: Inhibition of recombinant PRC2 complex (unknown origin) assessed as dissociation rate constant using H3K27me0 peptide substrate incubated for 3 hrs by HMT assay

[2] = target: T1, Histone-lysine N-methyltransferase EZH2; remark: listed apart in the source
Target sequence in this assay (Q15910 whole entry): as above
Description: Inhibition of recombinant PRC2 complex (unknown origin) assessed as kd/ka using H3K27me0 peptide substrate incubated for 3 hrs by HMT assay

[3] = target: T1, Histone-lysine N-methyltransferase EZH2; remark: listed apart in the source
Target sequence in this assay (Q15910 whole entry): as above

[4] = target: T1, Histone-lysine N-methyltransferase EZH2; conditions: time 3.0 hrs
Target sequence in this assay (Q15910 whole entry, looked up): as the sequence (Q15910 whole entry) above

SMILES	IC50 (MDA-MB-231) [µM]	IC50 (MDA-MB-468) [µM]	IC50 (MCF7) [µM]	IC50 (MCF-10A) [µM]	Kd [1] [s⁻¹]	Kd [2] [s⁻¹]	IC50 [3] [µM]	Ka [4]
Cc1cc(C)c(CNC(=O)c2cc(-c3ccc(N4CCN(C(=O)c5cc(Cc6n[nH]c(=O)c7ccccc67)ccc5F)CC4)nc3)cc(N(C)C)c2C)c(=O)[nH]1	23.2	15.2	38	> 50				
C=C(C)C(=O)Nc1cc(-c2ccc(N3CCN(C(=O)c4cc(Cc5n[nH]c(=O)c6ccccc56)ccc4F)CC3)nc2)cc(C(=O)NCc2c(C)cc(C)[nH]c2=O)c1C	17.9	2.21	30.1	> 50				
Cc1cc(C)c(CNC(=O)c2cc(-c3ccc(N4CCN(C(=O)c5cc(Cc6n[nH]c(=O)c7ccccc67)ccc5F)CC4)nc3)ccc2C)c(=O)[nH]1	30.2	28.3	> 50	> 50				
Cc1cc(C)c(CNC(=O)c2cc(-c3ccc(N4CCN(C(=O)c5cc(Cc6n[nH]c(=O)c7ccccc67)ccc5F)CC4)nc3)cc(NC(C)C)c2C)c(=O)[nH]1	> 50	16.5	> 50	> 50				
CCCC(=O)Nc1cc(-c2ccc(N3CCN(C(=O)c4cc(Cc5n[nH]c(=O)c6ccccc56)ccc4F)CC3)nc2)cc(C(=O)NCc2c(C)cc(C)[nH]c2=O)c1C	26.1	3.89	33.2	> 50				
CCn1ccc2c(C(=O)NCc3c(C)cc(C)[nH]c3=O)cc(-c3ccc(N4CCN(C(=O)c5cc(Cc6n[nH]c(=O)c7ccccc67)ccc5F)CC4)nc3)cc21	> 50	> 50	> 50	> 50				
CCN(c1cc(-c2ccc(N3CCN(C(=O)c4cc(Cc5n[nH]c(=O)c6ccccc56)ccc4F)CC3)nc2)cc(C(=O)NCc2c(C)cc(C)[nH]c2=O)c1C)C1CCOCC1	> 50	> 50	> 50	> 50				
CC[C@H](C)n1nc(C)c2c(C(=O)NCc3c(C)cc(C)[nH]c3=O)cc(-c3ccc(N4CCNCC4)nc3)cc21	9.26	9.97	19.5	> 50	0.06934	21.44	0.0108	3.23 10^6/M/s
Cc1cc(C)c(CNC(=O)c2cc(-c3ccc(N4CCN(C(=O)c5cc(Cc6n[nH]c(=O)c7ccccc67)ccc5F)CC4)nc3)cc(NC(=O)CC(C)C)c2C)c(=O)[nH]1	9.42	0.76	20	> 50	0.1116	25.46		4.54 10^6/M/s
Cc1cc(C)c(CNC(=O)c2cc(-c3ccc(N4CCN(C(=O)c5cc(Cc6n[nH]c(=O)c7ccccc67)ccc5F)CC4)nc3)cc([N+](=O)[O-])c2C)c(=O)[nH]1	> 50	> 50	> 50	> 50				
CNc1cc(-c2ccc(N3CCN(C(=O)c4cc(Cc5n[nH]c(=O)c6ccccc56)ccc4F)CC3)nc2)cc(C(=O)NCc2c(C)cc(C)[nH]c2=O)c1C	46	17.3	> 50	> 50				
CCNc1cc(-c2ccc(N3CCN(C(=O)c4cc(Cc5n[nH]c(=O)c6ccccc56)ccc4F)CC3)nc2)cc(C(=O)NCc2c(C)cc(C)[nH]c2=O)c1C	32.3	9.56	> 50	> 50				
Cc1cc(C)c(CNC(=O)c2cc(-c3ccc(N4CCN(C(=O)c5cc(Cc6n[nH]c(=O)c7ccccc67)ccc5F)CC4)nc3)cc3c2cnn3C(C)C)c(=O)[nH]1	25.8	17.9	40.2	> 50				
COc1cc(C)c(C(=O)NCc2c(C)cc(C)[nH]c2=O)cc1-c1ccc(N2CCN(C(=O)c3cc(Cc4n[nH]c(=O)c5ccccc45)ccc3F)CC2)nc1	26.1	1940	44.2	> 50				
C=CCn1ncc2c(C(=O)NCc3c(C)cc(C)[nH]c3=O)cc(-c3ccc(N4CCN(C(=O)c5cc(Cc6n[nH]c(=O)c7ccccc67)ccc5F)CC4)nc3)cc21	> 50	> 50	> 50	> 50				
Cc1cc(C)c(CNC(=O)c2ccc(C)c(-c3ccc(N4CCN(C(=O)c5cc(Cc6n[nH]c(=O)c7ccccc67)ccc5F)CC4)nc3)c2)c(=O)[nH]1	> 50	28.8	> 50	> 50				

SMILES	IC50 (MDA-MB-231) [µM]	IC50 (MDA-MB-468) [µM]	IC50 (MCF7) [µM]	IC50 (MCF-10A) [µM]	Kd [1] [s⁻¹]	Kd [2] [s⁻¹]	IC50 [3] [µM]	Ka [4]
Cc1cc(C)c(CNC(=O)c2cc(-c3ccc(N4CCN(C(=O)c5cc(Cc6n[nH]c(=O)c7ccccc67)ccc5F)CC4)nc3)cc([N+](=O)[O-])c2)c(=O)[nH]1	> 50	> 50	> 50	> 50				
CCN(C(C)=O)c1cc(-c2ccc(N3CCN(C(=O)c4cc(Cc5n[nH]c(=O)c6ccccc56)ccc4F)CC3)nc2)cc(C(=O)NCc2c(C)cc(C)[nH]c2=O)c1C	18.4	9.56	26.2	> 50				
Cc1cc(C)c(CNC(=O)c2cc(-c3ccc(N4CCN(C(=O)c5cc(Cc6n[nH]c(=O)c7ccccc67)ccc5F)CC4)nc3)cc(N)c2C)c(=O)[nH]1	1920	12.1	37.4	> 50				
Cc1cc(C)c(CNC(=O)c2cc(-c3ccc(N4CCN(C(=O)c5cc(Cc6n[nH]c(=O)c7ccccc67)ccc5F)CC4)nc3)cc3c2cnn3C(=O)N(C)C)c(=O)[nH]1	> 50	> 50	> 50	> 50				
CC(=O)Nc1cc(-c2ccc(N3CCN(C(=O)c4cc(Cc5n[nH]c(=O)c6ccccc56)ccc4F)CC3)nc2)cc(C(=O)NCc2c(C)cc(C)[nH]c2=O)c1C	2.63	0.41	12.1	> 50	0.01586	14.56	0.0365	1.09 10^6/M/s
Cc1cc(C)c(CNC(=O)c2cc(-c3ccc(N4CCN(C(=O)c5cc(Cc6n[nH]c(=O)c7ccccc67)ccc5F)CC4)nc3)cc3c2ccn3C)c(=O)[nH]1	> 50	> 50	> 50	> 50				
Cc1cc(C)c(CNC(=O)c2cc(-c3ccc(N4CCN(C(=O)c5cc(Cc6n[nH]c(=O)c7ccccc67)ccc5F)CC4)nc3)cc(NC(=O)CCC(=O)N(C)C)c2C)c(=O)[nH]1	22.1	8.24	30.4	> 50				
Cc1cc(C)c(CNC(=O)c2cc(-c3ccc(N4CCN(C(=O)c5cc(Cc6n[nH]c(=O)c7ccccc67)ccc5F)CC4)nc3)cc3c2cnn3C)c(=O)[nH]1	> 50	> 50	> 50	> 50				
COC1CCN(C(=O)c2cc(Cc3n[nH]c(=O)c4ccccc34)ccc2F)CC1 [AZD2461]	36.9	35.6	> 50	> 50				
CCC(=O)N(CC)c1cc(-c2ccc(N3CCN(C(=O)c4cc(Cc5n[nH]c(=O)c6ccccc56)ccc4F)CC3)nc2)cc(C(=O)NCc2c(C)cc(C)[nH]c2=O)c1C	2.82	2.11	18.2	> 50	0.02027	31.74		6.39 10^5/M/s
Cc1cc(C)c(CNC(=O)c2cc(-c3ccc(N4CCN(C(=O)c5cc(Cc6n[nH]c(=O)c7ccccc67)ccc5F)CC4)nc3)cc3c2ccn3C(C)C)c(=O)[nH]1	33.5	21.6	47.5	> 50				
C=C(C)C(=O)N(CC)c1cc(-c2ccc(N3CCN(C(=O)c4cc(Cc5n[nH]c(=O)c6ccccc56)ccc4F)CC3)nc2)cc(C(=O)NCc2c(C)cc(C)[nH]c2=O)c1C	8.73	2.78	21.2	> 50	0.04302	38.77		1.11 10^6/M/s
Cc1cc(C)c(CNC(=O)c2cccc(-c3ccc(N4CCN(C(=O)c5cc(Cc6n[nH]c(=O)c7ccccc67)ccc5F)CC4)nc3)c2)c(=O)[nH]1	25	29.7	48.4	> 50				
CCC(=O)Nc1cc(-c2ccc(N3CCN(C(=O)c4cc(Cc5n[nH]c(=O)c6ccccc56)ccc4F)CC3)nc2)cc(C(=O)NCc2c(C)cc(C)[nH]c2=O)c1C	8.72	0.33	17.7	> 50	0.09155	18.37		4.98 10^6/M/s
Cc1cc(C(=O)NCc2c(C)cc(C)[nH]c2=O)cc(-c2ccc(N3CCN(C(=O)c4cc(Cc5n[nH]c(=O)c6ccccc56)ccc4F)CC3)nc2)c1	> 50	32.5	> 50	> 50				
Cc1cc(C)c(CNC(=O)c2cc(-c3ccc(N4CCN(C(=O)c5cc(Cc6n[nH]c(=O)c7ccccc67)ccc5F)CC4)nc3)cc(C(F)(F)F)c2)c(=O)[nH]1	43.4	> 50	> 50	> 50				
